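Cultured in 96-well plates, cells were exposed to test compound for 48 hours across five concentrations. Abbreviation: GI50, concentration required for 50% inhibition of growth. At the TGI there is no net growth.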
Legend:
Assay in all cases: NCI anticancer screen, dose series, 48 h
[1] = test system: HOP-62 NSCLC
[2] = test system: HOP-92 NSCLC
[3] = test system: NCI-H226 lung
[4] = test system: K-562 leukemia
[5] = test system: HT29 colon
[6] = test system: ACHN renal
[7] = test system: SK-OV-3 ovarian
[8] = test system: OVCAR-5 ovarian
[9] = test system: T-47D breast
[10] = test system: DU-145 prostate

Row | SMILES | GI50 [1] | TGI [1] | GI50 [2] | TGI [2] | GI50 [3] | TGI [3] | GI50 [4] | TGI [4] | GI50 [5] | TGI [5] | GI50 [6] | TGI [6] | GI50 [7] | TGI [7] | TGI [8] | GI50 [8] | GI50 [9] | TGI [9] | GI50 [10] | TGI [10]
1 | C1C[OH+]CC[OH+]CC[OH+]CC[OH+]CC[OH+]CC[OH+]1.[Cl-].[Nb+5] | > 100 µM | > 100 µM | > 100 µM | > 100 µM | > 100 µM | > 100 µM | > 100 µM | > 100 µM | > 100 µM | > 100 µM | > 100 µM | > 100 µM | > 100 µM | > 100 µM |  |  |  |  |  | 
2 | CC(C)(C)OC(=O)N1N=NC2C3OC(CC3=O)C21 (configuration not stated) |  | > 100 µM |  | > 100 µM |  | 8.96 µM |  | > 100 µM |  | > 100 µM |  | > 100 µM |  | > 100 µM | > 100 µM |  |  |  |  | 
3 | C[N+](C)(C)CC1CCCC/C1=N\O (configuration not stated) |  | > 100 µM |  | > 100 µM |  |  |  | > 100 µM |  | > 100 µM |  | > 100 µM |  | > 100 µM | > 100 µM |  |  |  |  | 
4 | COc1cc2c(cc1OC)-c1ncc3cc4c(cc3c1C2)OCO4 |  |  | > 100 µM | > 100 µM |  |  | 19 µM | > 100 µM | > 100 µM | > 100 µM | > 100 µM | > 100 µM | 53 µM | > 100 µM | 97 µM | 39.6 µM | 71.2 µM | > 100 µM | 25.3 µM | 53.6 µM
5 | CN1CCN(CCOc2ccc(-c3cnc4c(-c5ccc(F)cc5)cnn4c3)cc2)CC1 | 1.85 µM | 3.81 µM | 1.43 µM | 3.3 µM |  |  | 0.365 µM | 2.3 µM | 1.65 µM | 4.28 µM | 1.42 µM | 2.73 µM |  |  | 3.03 µM | 1.6 µM | 1.49 µM | 3.86 µM | 1.64 µM | 3.16 µM
6 | NS(=O)(=O)c1ccc(NC(=O)COC(=O)c2cccc3c(=O)c4ccccc4[nH]c23)cc1 |  | 40.2 µM |  | 38.6 µM |  | 61.1 µM |  | > 100 µM |  | > 100 µM |  | 71.9 µM |  | 43.3 µM | > 90 µM |  |  |  |  | 
7 | COc1ccc(/C=N/N=C(\[O-])c2ccncc2)cc1F.COc1ccc(/C=N\N=C(/[O-])c2ccncc2)cc1F.[Cu+2] | 20.3 µM | 41 µM | 19.1 µM | 38.6 µM |  |  | 24.6 µM | > 100 µM | 24.1 µM | 69 µM | 39.5 µM | > 100 µM | 11.8 µM | 24.1 µM | 32.7 µM | 18.6 µM |  |  | 32 µM | > 100 µM
8 | O=C(/C(=C/c1ccccc1)c1ccccc1)N1c2ccccc2CC1c1c[nH]c2ccccc12 (configuration not stated) |  | > 100 µM |  | > 100 µM |  | > 100 µM |  | > 100 µM |  | > 100 µM |  | > 100 µM |  | > 100 µM | > 100 µM |  |  |  |  | 
9 | CCOC(=O)NC(=O)c1c[nH]c(=O)[nH]c1=O |  | > 100 µM |  | > 100 µM |  | > 100 µM |  | > 100 µM |  | > 100 µM |  | > 100 µM |  | > 100 µM | > 100 µM |  |  |  |  | 
10 | CC1=C(C(=O)Nc2ccccc2)C(c2ccc(C(C)C)cc2)C(C(=O)Nc2ccccc2)=C(C)N1 |  | 85.7 µM |  | 32.5 µM |  | 54.9 µM |  | 54.9 µM |  | 29.9 µM |  | > 66.9 µM |  | 82.9 µM | 38.5 µM |  |  |  |  | 
11 | Cc1ncc([N+](=O)[O-])n1CCNC(=O)CCCCCn1ccnc1[N+](=O)[O-] |  | > 100 µM |  |  |  | > 100 µM |  | > 100 µM |  | > 100 µM |  | > 100 µM |  | > 100 µM | > 100 µM |  |  | > 100 µM |  | > 100 µM
12 | COC(=O)Cc1nc2ccccc2o1 |  | > 100 µM |  | > 100 µM |  | > 100 µM |  | > 100 µM |  | > 100 µM |  | > 100 µM |  | > 100 µM | > 100 µM |  |  |  |  | 
13 | CC(=O)CC(=O)/C=C/c1cccs1 |  | > 100 µM |  |  |  | > 100 µM |  | > 100 µM |  | > 100 µM |  | > 100 µM |  | > 100 µM | > 100 µM |  |  |  |  | 
14 | O=C(c1ccccc1)C1C(C(=O)c2ccccc2)C(c2ccccc2)N(c2ccccc2)C1c1ccccc1 (configuration not stated) |  | > 100 µM |  | > 100 µM |  | > 100 µM |  | > 100 µM |  |  |  | > 100 µM |  |  | > 100 µM |  |  | > 100 µM |  | > 100 µM
15 | COC(=O)C1CC(C(=O)OC)c2nc3cc(C)c(C)cc3nc21 (configuration not stated) |  | > 100 µM |  | > 100 µM |  | > 100 µM |  | > 100 µM |  | > 100 µM |  | > 100 µM |  | > 100 µM | > 100 µM |  |  |  |  | 
16 | Cc1nnc(-c2ccc(-c3nc4ccccc4o3)cc2)o1 | 42.8 µM | > 100 µM | > 100 µM | > 100 µM |  |  | 29.5 µM | > 100 µM |  |  | > 100 µM | > 100 µM | 29.7 µM | 77.7 µM | > 100 µM | 44.8 µM | > 100 µM | > 100 µM | 42.2 µM | > 100 µM
17 | Oc1ccc(Cl)cc1-c1cc(-c2ccc(F)cc2)n[nH]1 | 2.98 µM | 10.9 µM |  |  | 2.57 µM | 12.9 µM | 2.8 µM | 27.1 µM | 3.99 µM | 22.2 µM | 2.34 µM | 7.2 µM | 1.99 µM | 5.21 µM | > 100 µM | 5.39 µM | 1.6 µM | 38.8 µM | 3.04 µM | 10.8 µM
18 | COc1c(N2CCN(Cn3c(O)c(N=NC(=O)c4ccncc4)c4cc(F)ccc43)C(C)C2)c(F)cc2c(=O)c(C(=O)O)cn(C3CC3)c12 (configuration not stated) | 21.7 µM | > 50 µM | 22.7 µM | > 50 µM | 25.4 µM | > 50 µM | > 50 µM | > 50 µM | > 50 µM | > 50 µM | 12.5 µM | > 50 µM | 39.8 µM | > 50 µM | > 50 µM | 33.3 µM |  |  | 10 µM | 32.8 µM
19 | OCC(O)C(OC1OC(CO)C(O)C(O)C1O)c1nn(-c2ccccc2)c2nc3cc(Cl)ccc3nc12 (configuration not stated) |  | > 100 µM |  |  |  |  |  | > 100 µM |  | > 100 µM |  | > 100 µM |  | > 100 µM | > 100 µM |  |  |  |  | 

Source: PubChem BioAssay (NCI)
